# Results reported in US20070224657A1, “Distribution of PON1 as a marker of lipid related disorders” (priority 2006, published 2007).
# Where two headings read alike, the source gives them in different places.
# Tests used:
# PON1 [1] = biological target: T1, PON1 (Homo sapiens, UniProt P27169); conditions: inhibitor or antibody (diluted 1:10, v:v) added to the fractions; data not shown
# J774 A.1 macrophages = assay: Macrophage cholesterol efflux mediated by HDL or LPDS; type: cell-based, murine; conditions: Mus musculus
# Method: HDL and LPDS were isolated from 3 healthy subjects by ultracentrifugation. […] The cells were also incubated with HDL or LPDS fractions that were preincubated for 1 hour at 37° C. with the PON1 inhibitor 2-hydroxyquinoline (200 μM), or with HDL and LPDS that were enriched with evolved PON1 (50 paraoxonase U/ml). HDL or LPDS-mediated cholesterol efflux was then determined. Results are given as mean±S.D of three different experiments *p<0.01 vs. HDL, #p<0.01 vs. LPDS.
# Cells: J774 A.1 murine macrophage cells were purchased from the American Tissue Culture Collection (ATCC, Rockville, Md.). The cells were grown in Dulbecco's modified Eagle's medium (DMEM) containing 5% FCS and 100 U penicillin/ml, 100 μg streptomycin/ml, and 2 mM glutamine.
# Macrophage Cholesterol efflux determination: J774 A.1 macrophages were incubated with [^3H]-labeled cholesterol (2 μCi/ml) for 1 hour at 37° C., followed by cell wash in ice-cold PBS (×3) and a further incubation in the absence or presence of HDL or LPDS (5 paraoxonase units/ml)) for 3 hours at 37° C. […] Cellular and medium [^3H]-labeled cholesterol was quantitated and the percentage of cholesterol efflux was calculated [the ratio of [^3H]-label in the medium*100/([^3H]-label in the medium+[^3H]-label in the cells), 18]. […]
# PON1 [2] = biological target: T1, PON1; conditions: inhibitor 200 μM
# Method: Arylesterase activity: Arylesterase activity was determined using 5 μl serum or 10 μl of the HDL or LPDS fraction in a total volume of 1 ml of 50 mM Tris-HCL, pH 8.0 containing 1 mM CaCl2 and 1 mM phenyl acetate. The increase in OD at 270 nm was monitored for 1 minute. One unit is defined as 1 μmol of phenyl actetate hydrolyzed per ml per minute (26).
# T1 sequence (P27169 whole entry): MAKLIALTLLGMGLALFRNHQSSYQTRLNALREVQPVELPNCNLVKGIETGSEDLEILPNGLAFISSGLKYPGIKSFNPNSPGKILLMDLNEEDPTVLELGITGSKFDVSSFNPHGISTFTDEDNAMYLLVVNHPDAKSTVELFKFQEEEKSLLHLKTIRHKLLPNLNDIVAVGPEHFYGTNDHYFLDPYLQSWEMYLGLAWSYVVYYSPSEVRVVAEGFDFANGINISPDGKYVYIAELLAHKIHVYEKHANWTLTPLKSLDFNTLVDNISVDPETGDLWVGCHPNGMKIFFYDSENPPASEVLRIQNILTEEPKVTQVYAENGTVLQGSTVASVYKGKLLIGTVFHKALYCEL
structure (smiles),measurement,setting,value
Oc1ccc2ccccc2n1 [2-hydroxyquinoline],paraoxonase activities in HDL and LPDS,PON1 [1],significantly reduced
same,inhibition at 200 µM,"J774 A.1 macrophages; J774.A1, read-out: reduction of cholesterol efflux by HDL preincubated with the inhibitor",25%
same,inhibition at 200 µM,"J774 A.1 macrophages; J774.A1, inhibitor 200 μM, vs non-treated LPDS, read-out: reduction of cholesterol efflux by LPDS preincubated with the inhibitor",10%
same,reduction in HDL arylesterase activity,PON1 [2]; HDL fraction,60%
same,HDL arylesterase activity with inhibitor,"PON1 [2]; HDL fraction, without inhibitor 22.4±1.5",9.0±1.0 units/ml
same,reduction in LPDS arylesterase activity,PON1 [2]; LPDS fraction,76%
same,LPDS arylesterase activity with inhibitor,"PON1 [2]; LPDS fraction, without inhibitor 2.9±0.5",0.7±0.7 units/ml
